Laboratory results from patent US10308602B2, “Organoselenium compounds, method for producing same, and pharmaceutical uses thereof in particular as antitumor agents” (TETRAHEDRON, priority 2014, dated 2019).

What was measured:
Format in all cases: cell-based
PANC-1 cells (pancreas) = test: Cytotoxicity, WST-1 cell viability test, PANC-1; conditions: Homo sapiens, after 96 hours of treatment, read-out: Concentration decreasing by 50% the cell viability
Protocol: (§1) Eight cell lines originating from different types of cancer were used: PC3 and DU145 (prostate), HT-29 and LS-174T (colon), Hep G2 (liver), MCF-7 (breast), MIA PaCa-2 and PANC-1 (pancreas).
(§2) The cells are cultured in the specific culture medium described in Table II, at 37° C., 5% CO2, according to the operating procedures that are well known to the person skilled in the art.
(§3) After thawing and amplification of the cancer cells in the appropriate culture medium (described in 1.2.), 96-well plates are inoculated with these cells and incubated or not incubated (controls) in their respective culture medium, in the presence of the compounds to be tested at 10, 50, 100, 250 and 500 μM.
(§4) After 96 h of incubation, each 96-well plate is analyzed in order to measure the viability of the cells using a colorimetric test with WST-1.

[1] = system: MIA PaCa-2 cells (pancreas); test: Cytotoxicity, WST-1 cell viability test, MIA PaCa-2; conditions: Homo sapiens, after 96 hours of treatment, read-out: Concentration decreasing by 50% the cell viability
Protocol: as §1, §2, §3, §4

DU145 cells (prostate) = test: Cytotoxicity, WST-1 cell viability test, DU145; conditions: Homo sapiens, DU-145, after 96 hours of treatment, read-out: Concentration decreasing by 50% the cell viability
Protocol: as §1, §2, §3, §4

Hep G2 cells (liver) = test: Cytotoxicity, WST-1 cell viability test, Hep G2; conditions: Homo sapiens, HepG2, after 96 hours of treatment, read-out: Concentration decreasing by 50% the cell viability
Protocol: as §1, §2, §3, §4

PC3 cells (prostate) = test: Cytotoxicity, WST-1 cell viability test, PC3; conditions: Homo sapiens, PC-3, after 96 hours of treatment, read-out: Concentration decreasing by 50% the cell viability
Protocol: as §1, §2, §3, §4

HT-29 cells (colon) = test: Cytotoxicity, WST-1 cell viability test, HT-29; conditions: Homo sapiens, after 96 hours of treatment, read-out: Concentration decreasing by 50% the cell viability
Protocol: as §1, §2, §3, §4

LS174T cells (colon) = test: Cytotoxicity, WST-1 cell viability test, LS174T; conditions: Homo sapiens, after 96 hours of treatment, read-out: Concentration decreasing by 50% the cell viability
Protocol: as §1, §2, §3, §4

MCF-7 cells (breast) = test: Cytotoxicity, WST-1 cell viability test, MCF-7; conditions: Homo sapiens, MCF7, after 96 hours of treatment, read-out: Concentration decreasing by 50% the cell viability
Protocol: as §1, §2, §3, §4

Row | Compound | IC50 (PANC-1 cells (pancreas)) [µM] | IC50 [1] [µM] | IC50 (DU145 cells (prostate)) [µM] | IC50 (Hep G2 cells (liver)) [µM] | IC50 (PC3 cells (prostate)) [µM] | IC50 (HT-29 cells (colon)) [µM] | IC50 (LS174T cells (colon)) [µM] | IC50 (MCF-7 cells (breast)) [µM]
1 | CCCCCCCCCCCC(=O)OC(C[Se]C)C(=O)O (stereo not shown) [Compound 38, 2-(dodecanoyloxy)-3-(methylseleno)propanoic acid] | 253 | 308 | 169 | 263 | 198 | 166 | 113 | 215
2 | C[Se]CC(O)C(=O)O (stereo not shown) [Compound 10, 2-hydroxy-3-(methylseleno)propanoic acid] |  |  | 392 |  |  | 328 | 430 | 
3 | CCOC(=O)C(O)C[Se]C (stereo not shown) [Compound 4, ethyl ester of 2-hydroxy-3-(methylseleno)propanoic acid] |  |  | 481 |  |  |  | 335 | 
